Data as given in ChEMBL document CHEMBL4804283, “Stk19 inhibitors for treatment of cancer” (2020).
Activity calls are given as the source filed them. The rule behind the calls is not given here.

Experiments:
[1] = Toxicity in C57BL/6J mouse assessed as effect on total bilirubin level at 25 mg/kg, administered twice daily for 20 days; format: organism-based; conditions: in vivo, 480 h
[2] = Toxicity in nude mouse xenografted with human SK-MEL-2 cells assessed as increase in animal survival at 25 mg/kg; format: organism-based; conditions: in vivo
[3] = Toxicity in C57BL/6J mouse assessed as liver histology at 25 mg/kg, administered twice daily for 20 days by H and E staining method; format: organism-based; conditions: in vivo, 480 h
[4] = biological target: T1, Inactive serine/threonine-protein kinase 19 (Homo sapiens) (UniProt P49842); experiment: Inhibition of STK19 in human WM2032 cells expressing NRAS Q61R and wild-type BRAF at 300 nM assessed as NRAS phosphorylation relative to control; format: cell-based
T1 sequence (whole entry): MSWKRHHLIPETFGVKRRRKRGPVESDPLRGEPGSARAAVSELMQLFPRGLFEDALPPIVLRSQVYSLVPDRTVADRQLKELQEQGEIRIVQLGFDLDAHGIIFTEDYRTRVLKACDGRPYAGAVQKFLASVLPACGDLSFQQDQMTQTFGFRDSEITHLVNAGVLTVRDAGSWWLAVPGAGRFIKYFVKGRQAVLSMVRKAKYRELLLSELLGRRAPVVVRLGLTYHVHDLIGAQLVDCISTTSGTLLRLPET

A-375 = experiment: Induction of apoptosis in human A375 cells expressing wild-type NRAS and BRAF V600E mutant at 1-3 uM relative to control; format: functional, cell-based
[5] = Toxicity in C57BL/6J mouse assessed as effect on animal body weight at 25 mg/kg, administered twice daily for 20 days; format: organism-based; conditions: in vivo, 480 h
[6] = biological target: T1, Inactive serine/threonine-protein kinase 19 (Homo sapiens); experiment: Inhibition of STK19 in human WM2032 cells expressing NRAS Q61R and wild-type BRAF at 100 nM assessed as H3K9 methylation relative to control; format: cell-based
WM2032 = experiment: Induction of apoptosis in human WM2032 cells expressing NRAS Q61R and wild-type BRAF at 1-3 uM relative to control; format: functional, cell-based
hTERT [7] = experiment: Antiproliferative activity against hTERT/p53DD/CDK4 (R24C) immortal melanocytes expressing wild-type STK19 at 3 uM relative to control; format: functional, tissue-based; conditions: Homo sapiens
[8] = Toxicity in C57BL/6J mouse assessed as kidney histology at 25 mg/kg, administered twice daily for 20 days by H and E staining method; format: organism-based; conditions: in vivo, 480 h
[9] = biological target: T2, Histone-lysine N-methyltransferase EHMT2 (Homo sapiens) (UniProt Q96KQ7); experiment: Inhibition of G9a in human WM2032 cells expressing NRAS Q61R and wild-type BRAF at 100-300 nM relative to control; format: cell-based
T2 sequence (whole entry): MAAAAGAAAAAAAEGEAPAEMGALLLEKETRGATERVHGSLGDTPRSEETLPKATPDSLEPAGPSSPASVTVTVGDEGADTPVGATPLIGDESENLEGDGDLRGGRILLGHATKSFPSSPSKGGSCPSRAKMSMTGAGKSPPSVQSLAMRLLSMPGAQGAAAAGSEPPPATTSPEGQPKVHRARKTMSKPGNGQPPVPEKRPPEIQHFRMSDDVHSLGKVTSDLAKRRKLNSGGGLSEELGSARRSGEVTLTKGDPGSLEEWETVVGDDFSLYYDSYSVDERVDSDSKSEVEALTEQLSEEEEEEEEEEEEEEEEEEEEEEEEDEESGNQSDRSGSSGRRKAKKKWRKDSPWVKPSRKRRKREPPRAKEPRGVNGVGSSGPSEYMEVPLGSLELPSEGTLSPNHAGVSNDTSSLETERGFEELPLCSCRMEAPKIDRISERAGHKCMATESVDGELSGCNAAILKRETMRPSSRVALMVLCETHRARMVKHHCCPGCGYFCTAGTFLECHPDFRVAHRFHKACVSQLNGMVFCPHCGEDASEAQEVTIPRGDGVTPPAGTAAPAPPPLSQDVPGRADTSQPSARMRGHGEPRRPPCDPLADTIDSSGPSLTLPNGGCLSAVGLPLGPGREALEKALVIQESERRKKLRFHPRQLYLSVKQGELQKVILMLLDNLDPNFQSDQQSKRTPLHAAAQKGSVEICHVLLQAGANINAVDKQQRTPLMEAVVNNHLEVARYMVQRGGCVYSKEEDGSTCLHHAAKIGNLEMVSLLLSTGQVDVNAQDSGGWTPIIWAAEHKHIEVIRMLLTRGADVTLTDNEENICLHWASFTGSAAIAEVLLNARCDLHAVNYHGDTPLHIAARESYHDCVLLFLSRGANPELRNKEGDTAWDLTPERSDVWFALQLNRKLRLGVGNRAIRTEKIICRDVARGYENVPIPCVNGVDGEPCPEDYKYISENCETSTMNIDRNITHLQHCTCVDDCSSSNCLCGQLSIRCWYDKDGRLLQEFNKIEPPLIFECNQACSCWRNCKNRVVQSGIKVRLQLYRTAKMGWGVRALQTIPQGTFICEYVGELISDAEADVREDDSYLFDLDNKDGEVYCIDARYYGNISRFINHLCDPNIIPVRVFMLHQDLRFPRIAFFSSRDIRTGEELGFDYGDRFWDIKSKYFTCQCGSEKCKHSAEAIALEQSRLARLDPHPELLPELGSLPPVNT

[10] = biological target: T1, Inactive serine/threonine-protein kinase 19 (Homo sapiens); experiment: Inhibition of STK19 in human WM2032 cells expressing NRAS Q61R and wild-type BRAF at 100 nM assessed as NRAS phosphorylation relative to control; format: cell-based
UACC-62 = experiment: Induction of apoptosis in human UACC62 cells expressing wild-type NRAS and BRAF V600E mutant at 1-3 uM relative to control; format: functional, cell-based
SK-MEL-2 [11] = experiment: Antitumor activity against human SK-MEL-2 cells xenografted in nude mouse assessed as inhibition of cancer cell proliferation at 25 mg/kg, administered for 21 days; format: functional, organism-based
hTERT [12] = experiment: Antitumor activity against hTERT/p53DD/CDK4 (R24C) immortal melanocytes expressing STK19 D89N mutant xenografted in nude mouse assessed as reduction in tumor formation; format: functional; conditions: Homo sapiens
[13] = Toxicity in C57BL/6J mouse assessed as effect on phosphorous level at 25 mg/kg, administered twice daily for 20 days; format: organism-based; conditions: in vivo, 480 h
[14] = Toxicity in nude mouse xenografted with human SK-MEL-2 cells assessed as increase in animal survival at 50 mg/kg; format: organism-based; conditions: in vivo
hTERT [15] = experiment: Antitumor activity against hTERT/p53DD/CDK4 (R24C) immortal melanocytes expressing wild-type STK19 xenografted in nude mouse assessed as reduction in tumor formation; format: functional; conditions: Homo sapiens
[16] = biological target: T2, Histone-lysine N-methyltransferase EHMT2 (Homo sapiens); experiment: Inhibition of G9a in human SK-MEL-2 cells expressing NRAS Q61R and wild-type BRAF at 100-300 nM relative to control; format: cell-based
SK-MEL-2 [17] = experiment: Growth inhibition of human SK-MEL-2 cells expressing NRAS Q61R and wild-type BRAF at 1-3 uM relative to control; format: functional, cell-based
hTERT [18] = experiment: Inhibition of colony formation in hTERT/p53DD/CDK4 (R24C) immortal melanocytes expressing wild-type STK19 at 3 uM relative to control; format: functional; conditions: Homo sapiens
[19] = biological target: T1, Inactive serine/threonine-protein kinase 19 (Homo sapiens); experiment: Inhibition of STK19 in human A375 cells expressing wild-type NRAS and BRAF V600E mutant at 1-3 uM assessed as NRAS signaling relative to control; format: cell-based; conditions: A-375

## COc1cc2nc(NC3CC3)nc(NC3CCN(C(C)C)CC3)c2cc1OC.O=C(O)C(F)(F)F
[1]
  Activity: Non-Toxic
[2]
  Activity: Non-Toxic
[3]
  Activity: Non-Toxic
[4]
  inhibition: Active
A-375
  Activity: inactive
[5]
  Activity: Non-Toxic
[6]
  inhibition: inactive
WM2032
  Activity: Active
hTERT [7]
  Activity: Active
[8]
  Activity: Non-Toxic
[9]
  inhibition: inactive
[10]
  inhibition: Active
UACC-62
  Activity: inactive
SK-MEL-2 [11]
  Activity: Active
hTERT [12]
  Activity: Active
[13]
  Activity: Non-Toxic
[14]
  Activity: Non-Toxic
hTERT [15]
  Activity: Active
[16]
  inhibition: inactive
SK-MEL-2 [17]
  Activity: Active
hTERT [18]
  Activity: Active
[19]
  inhibition: inactive
